Entries after “also recorded” stand apart in the source; their conditions may differ. Like-named read-outs stand apart in the source and are kept apart here.

Here are results for 1 compound from patent US10149644B2, “Curcumin derivatives for amyloid-β plaque imaging” (The General Hospital Corporation, priority 2008, dated 2018).

One data set has as its system Aβ plaques. The experiment in a line: Histological staining of Tg2576 mice brain slices. The following applies: co-staining with Thioflavin S. The protocol: Tg2576 mice brain tissue was cut into 25 micron slices. The slices were fixed with 4% formalin for 5 min and washed with PBS buffer twice. For Thioflavin S staining the slices were dipped into thioflavin S solution (1.0% in 50% ethanol) for 5 min., then differentiated in 70% ethanol for 5 min., rinsed with distilled water twice and mounted using Vecta shield mounting medium. Similar procedure was used to incubate sliced tissue with our probe. Histological slide was treated with, 0.01% CRANAD-2 in 10% acetone, 40% ethanol and 50% water for 15 min. For co-staining: the procedure was similar. The slices were first stained with thioflavin S, and washed with 70% ethanol for 5 min, then stained with the solution of CRANAD-2.

The target of data set [1] is T1, Aβ40 aggregates (Homo sapiens, UniProt P05067).
T1 construct: Synthetic amyloid-b protein (1-40) was purchased from rPeptide; purchased rPeptide (Bogart, Ga.)
T1 sequence (P05067 672-711 limits assumed): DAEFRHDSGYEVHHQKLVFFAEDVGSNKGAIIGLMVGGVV
The experiment in a line: Aβ aggregates detection in solution by fluorescence spectrum. The following applies: 250 nM compound, 250 nM Aβ40 aggregates, PBS, one minute. The class given is binding. The protocol: They then incubated 250 nM of the compounds with 250 nM of Aβ40 aggregates (calculation based on monomer) in PBS for one minute, and then measured the fluorescence spectra of the solutions.

In data set [2] the target is T1, Aβ40 aggregates. In words: In vitro Aβ aggregates binding constant measurement. The protocol:
[…] The Kd binding curve was generated by software Prism 3.0 with nonlinear one-site binding regression.
Binding constant (Kd) of CRANAD-2 towards Aβ aggregates was measured by fluorescence intensity (F.I.) with various concentrations of the prob.

A further data set concerns senile plaques. The experiment in a line: Ex vivo histological correlation. The class given is in vivo, mice. The conditions noted are these: 19-month old transgenic mice, 10 mg/kg i.v. The protocol:
19 month-old mouse was injected CRANAD-2 (10.0 mg/kg), and was sacrified after perfusion with 4% formaldehyde. The brain was taken and embedded in OCT. For histology, the brain was sliced into 25μ slices, and co-stained with thioflavin S as described above. To obtain ex vivo confirmation of the probe binding, mice at different ages were i.v injected with 10 mg/kg of CRANAD-2 probe, perfused and scarified at 1 h after injection.

Data set [3] can be described thus: Fluorescence emission properties of the probes. It is filed as physicochemical. The method, then: Reagents used for synthesis were purchased from Aldrich without further purification. Column chromatography was performed on silica gel (SiliCycle Inc., 60 Å, […]) slurry packed into glass columns. Thioflavin S was purchased from Aldrich. Synthetic amyloid-b protein (1-40) was purchased from rPeptide (Bogart, Ga., 30622) and aggregates for in vitro studies were generated followed the reported procedure. BSA was purchased from Sigma, and human serum was obtained from Invitrogen (type AB). ^1H and ^13C NMR spectra were recorded at 400 MHz and 100 MHz respectively, and are reported in ppm downfield from tetramethylsilane. Fluorescence studies were carried out with F-4500 Fluorescense Spectrophotometer. Fluorescence quantum yields were determined using aqueous solution of Cy5.5-maleimide as a standard (y=0.23). High resolution mass spectra were obtained at the Harvard University, Department of Chemistry Instrumentation Facility. Transgenic Tg2576 mice {45} and littermates were purchased from Taconic Farm, Balb/c mice for BBB penetrating test were obtained from Jackson Laboratory, and the experiment procedure was approved by Massachusetts General Hospital. In vivo imaging was recorded on Kodak Imaging Station 2000MM.
Furthermore, by comparing the fluorescence intensity in methanol, the quantum yield of CRANAD-2 was significant higher than that of curcumin (FIG. 2). […] Additionally, these modifications produced a large stokes shift and improved quantum yield of CRANAD-2. The synthesized compound produced the longest emission and the largest stokes shift among the existing probes for senile plaque detection {3}.

In the next data set the target is T2, BSA (Bos taurus, UniProt P02769).
T2 construct: purchased Sigma
T2 sequence (P02769 25-607): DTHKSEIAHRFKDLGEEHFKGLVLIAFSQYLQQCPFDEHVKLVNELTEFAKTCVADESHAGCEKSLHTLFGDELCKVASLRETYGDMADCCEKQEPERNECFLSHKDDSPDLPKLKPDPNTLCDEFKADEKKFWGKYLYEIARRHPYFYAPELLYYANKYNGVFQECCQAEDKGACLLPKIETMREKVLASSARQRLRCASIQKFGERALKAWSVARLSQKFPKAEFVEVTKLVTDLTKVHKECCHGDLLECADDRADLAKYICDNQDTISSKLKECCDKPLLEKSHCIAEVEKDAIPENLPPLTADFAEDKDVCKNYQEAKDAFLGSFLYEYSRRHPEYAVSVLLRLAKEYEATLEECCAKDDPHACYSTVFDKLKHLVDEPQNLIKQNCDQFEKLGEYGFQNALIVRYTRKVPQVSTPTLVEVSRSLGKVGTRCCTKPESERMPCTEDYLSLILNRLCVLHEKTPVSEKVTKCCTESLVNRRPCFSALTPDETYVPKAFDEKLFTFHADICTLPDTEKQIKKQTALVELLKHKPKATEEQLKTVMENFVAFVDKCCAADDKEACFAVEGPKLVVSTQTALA
In words: BSA interaction. The class given is binding. The following applies: BSA 20 μg/mL, probe 5 μM. The protocol:
CRANAD-2 was added to a BSA (20 μg/mL) solution to make the final concentration of 5 μM. The fluorescence spectrum of the above mixture was recorded (excited at 590 nm). For comparisons, CRANAD-2 (5 μM) in PBS, PBS alone, and Aβ40 aggregates ([…]) and CRANAD-2 (5 μM) were prepared.
(§1) Since serum albumin is the most abundant plasma protein, it was important to test whether the probe had any affinity toward this protein. To test this the inventors incubated CRANAD-2 probe with BSA. For controls, the inventors used PBS buffer alone, the probe incubated in PBS alone, and with Aβ40 aggregates. […] In addition, the inventors tested CRANAD-2 stability by incubating the probe (4×10^−6M) with human serum for 2 hours at 37° C.

Another data set can be described thus: Serum stability test. It is filed as in vitro ADME, human. The following applies: for recovery at 2 h, 4 μM: human, human serum, 37° C., ethyl acetate extraction. The protocol:
CRANAD-2 (4.0 μM) was incubated at 37° C. for 2 h with 1.0 mL human serum, then ethyl acetate (4×5.0 mL) was added, stirred at room temperature for 10 min., and centrifuged to give clear organic supernatant. The ethyl acetate solution was subjected to fluorescence intensity measurement (F.I.(660 nm)=8713), and the concentration of CRANAD-2 was calculated (0.14 μM) using the equation (Y=474+61.7 X, where Y is F.I., and X is the concentration) generated from standard curve of CRANAD-2 in ethyl acetate. The recovery of CRANAD-2 was about 70%. After the fluorescence measurement, the ethyl acetate solution was concentrated to 40 μL, and 10 μL was injected for HPLC analysis. By HPLC, the recovery of CRANAD-2 was about 75%, which was close to the result from fluorescence measurement.
as §1

The term Kd denotes the equilibrium constant for the complex coming apart. With `CN(C)c1ccc(/C=C/C2=CC(/C=C/c3ccc(N(C)C)cc3)=[O+][B-](F)(F)O2)cc1` [CRANAD-2], the “Staining of Aβ plaques in brain tissue” value in the data set on Aβ plaques is “specificity towards Aβ plaques; also recorded: specific staining with Aβ plaques”. On Aβ40 aggregates [1], the “Fluorescence intensity change with Aβ40 aggregates” value is on record as “intensity increases” and the “Wavelength shift with Aβ40 aggregates” value is on record as “wavelength blue-shifts”. For the same compound, the “Affinity to Aβ aggregates” value on Aβ40 aggregates [2] was “high affinity to Aβ aggregates”. Moreover, the Kd on Aβ40 aggregates [2] (Aβ40 aggregates in PBS, fluorescence intensity, nonlinear one-site regression, read-out: Binding constant (Kd) towards Aβ aggregates) worked out at 38.7 ± 2.77 nM. In the data set with senile plaques, the “Labelling of senile plaques ex vivo after i.v. injection” value is “senile plaques were observed”. In addition, the “Stoke shift in PBS” value in data set [3] (PBS only) is given as 140 nm. Also, the “Stoke shift in PBS with Aβ aggregates” value in data set [3] (PBS with Aβ aggregates) was determined as 70 nm. In data set [3] (probe alone, methanol (FIG. 2)), the “λmax(em)” value came to 760 nm and the “λmax(ex)” value is on record as 640 nm. Moreover, the “Binding to BSA / fluorescence change with BSA” value at BSA is reported as “did not observe any significant change in fluorescence; also recorded: did not show any significant binding; also recorded: does not show any significant binding”. The “Stability in serum in vitro” value in “Serum stability test” is listed as “considerable stability in serum”. For the same compound, in “Serum stability test” (read-out: Recovery after serum incubation, by HPLC), the recovery at 2 h, 4 μM was approximately 75%. Besides, the recovery at 2 h, 4 μM in the data set “Serum stability test” (read-out: Recovery after serum incubation, by fluorescence) was approximately 70%.
